In ChEMBL document CHEMBL2203248, “Identification of novel series of pyrazole and indole-urea based DFG-out PYK2 inhibitors” (Bioorg Med Chem Lett, 2012):

What was measured:
[1] = Clearance in human liver microsomes at 1 uM after 40 mins by HPLC-MS analysis; format: ADME, Microsome; conditions: read-out: CLH
[2] = Lipophilicity, log D of the compound at pH 7.4; format: physicochemical; conditions: buffer
[3] = Cmax in Wistar Han rat at 30 mg/kg, po; format: ADME, organism-based; parameters: dose 30 mg/kg, route oral; conditions: in vivo
[4] = Plasma clearance in Wistar Han rat at 1 mg/kg, iv; format: ADME, organism-based; parameters: dose 1 mg/kg, route intravenous
[5] = Terminal elimination half life in Wistar Han rat at 1 mg/kg, iv; format: ADME, organism-based; parameters: dose 1 mg/kg, route intravenous; conditions: in vivo, read-out: beta t1/2 (converted)
[6] = Volume of distribution at steady state in Wistar Han rat at 1 mg/kg, iv; format: ADME, organism-based; parameters: dose 1 mg/kg, route intravenous; conditions: in vivo, read-out: Vdss
[7] = Oral bioavailability in Wistar Han rat at 30 mg/kg; format: ADME, organism-based; conditions: in vivo
Rattus norvegicus [8] = assay: fCmax in Wistar Han rat at 30 mg/kg, po; format: ADME, organism-based; parameters: dose 30 mg/kg, route oral; conditions: in vivo
[9] = Terminal elimination half life in Wistar Han rat at 100 mg/kg, po; format: ADME, organism-based; parameters: dose 100 mg/kg, route oral; conditions: in vivo, read-out: beta t1/2 (converted)
Rattus norvegicus [10] = assay: fCmax in Wistar Han rat at 100 mg/kg, po; format: ADME, organism-based; parameters: dose 100 mg/kg, route oral; conditions: in vivo
[11] = Cmax in Wistar Han rat at 100 mg/kg, po; format: ADME, organism-based; parameters: dose 100 mg/kg, route oral; conditions: in vivo

Row | SMILES | CLint scaled at 1 µM [1] | logD [2] | further results
1 | Cc1ccc(-n2nc(C(C)(C)C)cc2NC(=O)Nc2cc(-c3ccc4nccn4c3)[nH]n2)cc1 | 44 mL/min/kg | 4.5 | –
2 | Cc1ccc(-n2nc(C(C)(C)C)cc2NC(=O)Nc2cc(-c3ccc(=O)n(C)c3)n[nH]2)cc1 | 20 mL/min/kg | 3.8 | –
3 | Cc1ccc(-n2nc(C(C)(C)C)cc2NC(=O)Nc2cc(-c3ccc4c(c3)OCCO4)[nH]n2)cc1 | 92 mL/min/kg | – | –
4 | Cc1ccc(-n2nc(C(C)(C)C)cc2NC(=O)Nc2cc(-c3ccc4ncccc4c3)n[nH]2)cc1 | 55 mL/min/kg | 5.2 | Cmax [3]: 61.3 µM; clearance [4]: 2 mL/min/kg; half-life [5]: 2 h; Vd [6]: 0.15 L/kg; bioavailability [7]: 47%; fCmax (Rattus norvegicus [8]): 184 nM
5 | COc1ccc(-c2cc(NC(=O)Nc3cc(C(C)(C)C)nn3-c3ccc(C)cc3)n[nH]2)c(C)c1 | 129 mL/min/kg | – | –
6 | Cc1ccc(-n2nc(C(C)(C)C)cc2NC(=O)Nc2cccc3cc(C(=O)N4CCC5(CCNC5)C4)[nH]c23)cc1 (stereo not given) | 53 mL/min/kg | – | –
7 | COc1ccc(-c2cc(NC(=O)Nc3cc(C(C)(C)C)nn3-c3ccc(C)cc3)n[nH]2)cn1 | 48 mL/min/kg | 4.9 | –
8 | Cc1ccc(-n2nc(C(C)(C)C)cc2NC(=O)Nc2cc(-c3ccc(=O)[nH]c3)n[nH]2)cc1 | 11.9 mL/min/kg | 3.7 | –
9 | Cc1ccc(-n2nc(C(C)(C)C)cc2NC(=O)Nc2cc(-c3ccc(O)nn3)[nH]n2)cc1 | 16 mL/min/kg | – | –
10 | Cc1ccc(-n2nc(C(C)(C)C)cc2NC(=O)Nc2cc(COc3cccnc3)n[nH]2)cc1 | 109 mL/min/kg | – | –
11 | CCOCCCNC(=O)c1cc2cccc(NC(=O)Nc3cc(C(C)(C)C)nn3-c3ccc(C)cc3)c2[nH]1 | 31 mL/min/kg | – | Cmax [3]: 0.621 µM; clearance [4]: 4.8 mL/min/kg; half-life [5]: 4.1 h; Vd [6]: 0.7 L/kg; bioavailability [7]: 1.6%; fCmax (Rattus norvegicus [8]): 42 nM
12 | Cc1ccc(-n2nc(C(C)(C)C)cc2NC(=O)Nc2cccc3cc(C(=O)N4CCCC4)[nH]c23)cc1 | 77 mL/min/kg | – | –
13 | Cc1ccc(-n2nc(C(C)(C)C)cc2NC(=O)Nc2cccc3cc(C(=O)NC(C)C)[nH]c23)cc1 | 93 mL/min/kg | 5.3 | –
14 | Cc1ccc(-n2nc(C(C)(C)C)cc2NC(=O)Nc2cc(-c3ccc4nccnc4c3)[nH]n2)cc1 | 149 mL/min/kg | 4.7 | half-life [9]: 7.3 h; fCmax (Rattus norvegicus [10]): 1.1 nM; Cmax [11]: 0.068 µM
15 | CNC(=O)c1cc2cccc(NC(=O)Nc3cc(C(C)(C)C)nn3-c3ccc(C)cc3)c2[nH]1 | 28 mL/min/kg | 4.9 | –
16 | Cc1ccc(-n2nc(C(C)(C)C)cc2NC(=O)Nc2cccc3cc(C(=O)N(C)CCc4ccccn4)[nH]c23)cc1 | 53 mL/min/kg | – | Cmax [3]: 38.3 µM; clearance [4]: 3.2 mL/min/kg; half-life [5]: 2.2 h; Vd [6]: 0.4 L/kg; bioavailability [7]: 69%; fCmax (Rattus norvegicus [8]): 25 nM
